“And” between values parts separate entries of the source, which are not always exact repeats. Equal values may be shown once. One block for each compound: values may come before it. The source made the active and inactive calls.
Assays:
[1] = HEp-2 cell cytotoxicity, dose response, cytotoxicity control for RSV inhibitor project, HTS (AID 2410); type: functional; conditions: human respiratory syncytial virus
[2] = target: Beta-2 adrenergic receptor (Homo sapiens, UniProt P07550); assay: beta2AR agonists driving receptor internalization, dose response, cell-based, FAP fluorogen, flow cytometry, cherry pick 1 (AID 588763); type: functional
[3] = target: T1, DNA repair protein RAD52 homolog (Homo sapiens, UniProt P43351); type: functional, biochemical
T1 sequence (P43351 whole entry): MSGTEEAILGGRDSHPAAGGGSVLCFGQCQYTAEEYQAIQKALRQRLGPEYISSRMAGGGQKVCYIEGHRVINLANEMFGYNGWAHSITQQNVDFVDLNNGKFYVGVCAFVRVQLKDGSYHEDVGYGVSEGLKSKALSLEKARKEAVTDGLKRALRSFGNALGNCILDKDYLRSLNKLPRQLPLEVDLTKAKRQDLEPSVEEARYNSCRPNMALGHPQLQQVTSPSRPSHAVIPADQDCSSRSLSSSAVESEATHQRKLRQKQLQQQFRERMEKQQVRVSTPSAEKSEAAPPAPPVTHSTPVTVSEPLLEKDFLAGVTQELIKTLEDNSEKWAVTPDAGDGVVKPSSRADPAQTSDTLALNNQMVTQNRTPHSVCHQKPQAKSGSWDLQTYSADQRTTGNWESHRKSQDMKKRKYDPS

[4] = target: T2, High affinity choline transporter 1 (Homo sapiens, UniProt Q9GZV3); assay: CHT inhibitors, dose response, cell-based, 5-point CRC, membrane potential dye (AID 504840); type: functional
T2 sequence (Q9GZV3 whole entry): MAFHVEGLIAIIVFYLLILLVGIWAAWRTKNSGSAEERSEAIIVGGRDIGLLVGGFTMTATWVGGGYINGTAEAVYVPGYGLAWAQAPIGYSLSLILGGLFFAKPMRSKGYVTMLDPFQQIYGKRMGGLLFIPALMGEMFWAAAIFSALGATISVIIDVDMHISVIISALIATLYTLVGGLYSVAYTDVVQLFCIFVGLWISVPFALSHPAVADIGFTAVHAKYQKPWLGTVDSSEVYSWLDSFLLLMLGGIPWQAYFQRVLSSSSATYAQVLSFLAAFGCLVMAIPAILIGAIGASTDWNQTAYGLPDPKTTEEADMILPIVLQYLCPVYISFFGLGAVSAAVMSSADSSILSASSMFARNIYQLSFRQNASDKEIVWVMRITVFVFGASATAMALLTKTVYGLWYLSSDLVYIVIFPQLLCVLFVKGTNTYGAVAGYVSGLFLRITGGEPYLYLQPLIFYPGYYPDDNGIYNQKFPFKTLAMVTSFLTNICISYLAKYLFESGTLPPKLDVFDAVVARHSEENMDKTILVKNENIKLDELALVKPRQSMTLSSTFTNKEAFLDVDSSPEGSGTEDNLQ

[5] = target: T2, High affinity choline transporter 1; assay: CHT inhibitors, dose response, cell-based, 10-point CRC, membrane potential dye (AID 588401); type: functional;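 further: membrane potential dye fluorescence of choline-evoked depolarization via CHT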
[6] = ZM109 Env clade C HIV-1 fusion inhibitors, dose response, HeLa effector, CEM target cells, luciferase, cherry-pick (AID 652058); type: functional, cell-based
[7] = inhibitors of HIV Env-driven cell fusion, dose response, cherry-pick (AID 652057); type: functional, cell-based
[8] = off-target signal loss in HeLa-CEM21 co-culture – HeLa F-luc CTL cells, cherry-picked, counter-screen for HIV-1 Env fusion inhibitor project, dose response (AID 652040); type: functional, cell-based;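 further: potency for signal decrease marking cytotoxic or nonspecific inhibition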
[9] = inhibitors of clade B AD8 Env fusion, dose response, cell-based, cherry-pick (AID 652062); type: functional;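 further: luciferase signal from cell-cell fusion driven by HIV-1 clade B AD8 Env; potency is for inhibitors of fusion seen as a drop in luminescence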
[10] = non-specific cell cytotoxicity, dose response, cytotoxicity control for PAX8 inhibitor project, plate reader, dry powder samples (AID 743021); type: functional, cell-based
[11] = target: Paired box protein Pax-8 (Homo sapiens, UniProt Q06710); assay: inhibitors of PAX8-driven TPO luciferase reporter, dose response, RMG-I cells, cherry-pick (AID 687027); type: functional, cell-based;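 further: luciferase reporter driven by Pax8 target thyroperoxidase promoter measured by SteadyGlo luminescence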
[12] = cytotoxicity in HEK-293T cells, dose response, cytotoxicity control for TCR NF-kB inhibitor project, luminescence, T-cell screen hits (AID 489026); type: functional, cell-based;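 further: cells exposed to compound about 14 hours before the viability readout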
[13] = HepG2 cell cytotoxicity, dose response, cytotoxicity control, cherry-picked samples (AID 1159577); type: functional, cell-based
[14] = P. falciparum Dd2 growth inhibitors, dose response, SYBR Green, cherry-picked samples (AID 1159567); type: functional, cell-based

Beta-2 adrenergic receptor, sequence (P07550 whole entry): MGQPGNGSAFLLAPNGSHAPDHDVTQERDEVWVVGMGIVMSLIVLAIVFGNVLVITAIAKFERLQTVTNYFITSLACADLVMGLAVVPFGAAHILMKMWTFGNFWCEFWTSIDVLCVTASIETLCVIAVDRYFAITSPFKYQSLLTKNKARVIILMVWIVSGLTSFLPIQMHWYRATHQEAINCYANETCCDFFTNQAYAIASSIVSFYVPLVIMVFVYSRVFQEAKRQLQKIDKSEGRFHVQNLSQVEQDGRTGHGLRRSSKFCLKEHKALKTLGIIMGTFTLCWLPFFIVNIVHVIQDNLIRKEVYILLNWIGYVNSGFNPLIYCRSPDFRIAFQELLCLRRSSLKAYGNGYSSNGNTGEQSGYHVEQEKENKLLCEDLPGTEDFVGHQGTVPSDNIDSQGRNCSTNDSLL
Paired box protein Pax-8, sequence (Q06710 whole entry): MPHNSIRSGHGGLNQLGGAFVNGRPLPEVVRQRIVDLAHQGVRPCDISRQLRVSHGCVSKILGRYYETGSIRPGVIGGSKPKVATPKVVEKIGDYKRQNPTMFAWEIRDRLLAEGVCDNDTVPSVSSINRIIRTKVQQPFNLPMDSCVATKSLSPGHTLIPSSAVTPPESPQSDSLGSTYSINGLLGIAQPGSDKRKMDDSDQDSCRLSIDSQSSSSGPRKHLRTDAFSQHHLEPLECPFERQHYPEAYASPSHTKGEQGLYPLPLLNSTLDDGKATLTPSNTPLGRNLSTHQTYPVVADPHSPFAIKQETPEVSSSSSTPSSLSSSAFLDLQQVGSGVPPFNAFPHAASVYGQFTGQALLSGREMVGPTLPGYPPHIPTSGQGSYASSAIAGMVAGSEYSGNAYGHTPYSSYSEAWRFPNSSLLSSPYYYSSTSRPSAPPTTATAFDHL

EC50 [2]: 16.9 µM (inactive)
SMILES: O=C(Nc1cccc(-c2nc3ccccc3s2)c1)c1cccs1
CC50 [1]: 15.4 µM (active)

AC50 [3]: 7.9 µM (active)
SMILES: CN(C)CCCNc1nc2cc(-c3cccc(C(F)(F)F)c3)sc2c(=O)n1C

SMILES: CCC(=O)c1ccc(OCC(=O)N2CCN(CC(=O)Nc3ccc(C)cc3)CC2)cc1
EC50 [2]: 0.0646 µM (active)

IC50 [4]: 9.77 µM (active)
IC50 [5]: 5.77 µM (active)
SMILES: Cc1ccccc1NC(=O)c1ccc(C)c(S(=O)(=O)NCc2cccnc2)c1

SMILES: COC(=O)C1(C(=O)OC)C[C@H](c2ccc(OC)cc2)N(Cc2ccccc2OC)[C@@H]1c1cccs1
AC50 [6]: 4.03 µM (active) and 2.19 µM (active)
AC50 [7]: 2.05 µM (active) and 2.55 µM (active)
AC50 [8]: 4.05 µM (active) and 2.64 µM (active)

SMILES: COC(=O)C1(C(=O)OC)C[C@H](c2ccccc2)N(Cc2ccccc2OC)[C@@H]1c1ccccc1
AC50 [6]: 1.75 µM (active)
AC50 [9]: 2.41 µM (active)
AC50 [7]: 1.65 µM (active)
AC50 [8]: 3.26 µM (active)

SMILES: CCC(=O)N(C)C[C@@H]1Oc2cc(C#Cc3ccccc3)ccc2S(=O)(=O)N([C@H](C)CO)C[C@H]1C
AC50 [6]: 1.58 µM (active)
AC50 [9]: 54.8 µM (active)
AC50 [7]: 7.15 µM (active)

SMILES: O=C(Cc1ccccn1)N1CCCCN2[C@@H](CO)[C@@H](c3ccc(-c4ccccc4F)cc3)[C@@H]2C1
AC50 [10]: 46.2 µM (active)
AC50 [11]: 57 µM (active)

AC50 [3]: 12.1 µM (active)
SMILES: NC1(N2SC(S)=C3CCCC=C32)CCCCC1

SMILES: Oc1cc(-c2ccccc2)nc2cc(F)ccc12
IC50 [12]: > 80 µM (inactive)

AC50 [3]: 16.5 µM (active)
SMILES: C=CC[N@@+]12CC[C@]34c5ccccc5N5/C=C6\C7N(/C=C(\C53)[C@@H](C[C@@H]41)/C(=C/CO)C2)c1ccccc1[C@@]71CC[N@@+]2(CC=C)C/C(=C\CO)[C@@H]6C[C@@H]12 (some centres undefined)

SMILES: OC[C@@H]1[C@H](c2ccc(C3=CCCCC3)cc2)[C@@H](CNC2CCCC2)N1CC1CC1
AC50 [13]: 21.9 µM (active)
AC50 [14]: 1.61 µM (active)

SMILES: COc1cccc(S(=O)(=O)Nc2ccc3c(c2)[C@@H]2C[C@H](CC(=O)NCc4ccccc4F)O[C@@H](CO)[C@@H]2O3)c1
AC50 [13]: > 39 µM (inactive)
AC50 [14]: 5.32 µM (active)

SMILES: CCCN(C)C[C@H]1Oc2ncc(C#Cc3ccc(OC)cc3)cc2C(=O)N([C@@H](C)CO)C[C@H]1C
AC50 [13]: 28.8 µM (active)
AC50 [14]: 2.78 µM (active)

SMILES: COc1ccc2c3c(n(C)c2c1)[C@@H](CO)N(Cc1ccc(F)cc1)CC31CCN(CC2CC2)CC1
AC50 [13]: > 39 µM (inactive)
AC50 [14]: 3.48 µM (active)
